This is an account of results in patent publication US8012944B2, “Method for treating cancer using IAP antisense oligomer and chemotherapeutic agent” (Pharmascience Inc., priority 2003, dated 2011).

What all share (type): cell-based, human
Data set [1] relates to HIAP1 protein. The experiment in a line: HIAP1 protein in cycloheximide-induced SF295 cells (western blot). An excerpt:
HIAP1 was detected on a western immunoblot using an affinity-purified anti-rat HIAP1 rabbit polyclonal antibody as a primary antibody and was detected by ECL (Amersham) on X-ray film with a secondary horseradish-peroxidase-conjugated anti-rabbit Ig antibody and a chemiluminescent substrate. The anti-HIAP1 polyclonal antibody is raised against a GST-fusion of the rat HIAP1. This antibody cross-reacts with both human and murine HIAP1 and HIAP2.
(§1) The effect of HIAP1 antisense nucleobase oligomers on HIAP1 protein and mRNA expression was also examined in cells induced to express HIAP1. SF295 cells were transfected with oligonucleotides, or were mock transfected. The transfected cells were then treated with 10 μg/ml cycloheximide for 24 hours to induce 70 kDa HIAP1 mRNA and protein. Protein levels were measured by western blot analysis with an anti-HIAP1 polyclonal antibody, and normalized against actin protein in a re-probing of the same blots. The densitometric scan results were plotted against the mock results (set at 100%) in FIG. 22B. […] The transfection process itself (e.g., mock or scrambled survivin) induces HIAP1 protein compared to the untreated sample as shown on the western immunoblot.

Data set [2] concerns survivin protein. The experiment in a line: Survivin protein after APO 2 treatment. As to conditions: after oligo treatment.
Data set [3] has as its system HIAP1 mRNA. The experiment in a line: HIAP1 mRNA in SF295 cells under cycloheximide induction (TaqMan). On the procedure:
as §1
Controls for this experiment were three oligonucleotides for APO 2: one scrambled sequence (same base composition but random order, 5′-AAGGGCGGCGGAGTGAGAC-3′; SEQ ID NO: 297), one reverse polarity (same base composition, same sequential order but in the opposite direction, 5′-AGAGGACGGAGTCGGAGGC-3′; SEQ ID NO: 298), and one mismatch sequence (containing four base mismatches out of 19 bases, 5′-CGGAGCGTGAGGATGGAGA-3′; SEQ ID NO: 299).
For orientation: Quantitative PCR measures a nucleic acid by following its amplification.

Data set [4] concerns HIAP1 mRNA. The experiment in a line: HIAP1 mRNA in SF295 cells, basal conditions (TaqMan). Details: decrease of HIAP1 mRNA compared to mock or scrambled survivin control: concentration or dose not given beside the values. Conditions: for HIAP1 mRNA levels (in words): SF295 cells (FIG. 21). On the procedure:
RNA was extracted from cells lysed in RLT buffer (QIAGEN, Valencia, Calif.), and purified using QIAGEN RNeasy columns/kits. Real-time quantitative PCR was performed on a Perkin-Elmer ABI 7700 Prism PCR machine. RNA was reverse transcribed and amplified according to the TaqMan Universal PCR Master Mix protocol of PE Biosystems, using primers and probes designed to specifically recognize XIAP, HIAP1, survivin, or GAPDH. For human survivin, the forward primer was 5′-[…]-3′ (SEQ ID NO: 263), the reverse primer was 5′-GAAAGGAAAGCGCAACCG-3′ (SEQ ID NO: 264), and the probe was 5′-(FAM)[…](TAMRA)-3′ (SEQ ID NO: 265). For human HIAP1, the forward primer was 5′-[…]-3′ (SEQ ID NO: 266), the reverse primer was 5′-[…]-3′ (SEQ ID NO: 267), and the probe was 5′-(FAM)[…](TAMRA)-3′ (SEQ ID NO: 268). For human XIAP, the forward primer was 5′-[…]-3′ (SEQ ID NO: 269), the reverse primer was 5′-[…]-3′ (SEQ ID NO: 270), and the probe was 5′-(FAM)[…](TAMRA)-3′ (SEQ ID NO: 271). For human GAPDH, the forward primer was 5′-GAAGGTGAAGGTCGGAGTC-3′ (SEQ ID NO: 272), the reverse primer was 5′-GAAGATGGTGATGGGATTC-3′ (SEQ ID NO: 273), and the probe was 5′-(JOE)[…](TAMRA)-3′ (SEQ ID NO: 274). FAM is 6-carboxyfluoroscein, JOE is 6-carboxy-4,5-dichloro-2,7-dimethoxyfluoroscein, and TAMRA is 6-carboxy-N,N,N′,N′-tetramethylrhodamine. FAM and JOE are 5′ reporter dyes, while TAMRA is a 3′ quencher dye.
Relative quantification of gene expression was performed as described in the PE Biosystems manual using GAPDH as an internal standard. The comparative Ct (cycle threshold) method was used for relative quantitation of IAP mRNA levels compared to GAPDH mRNA levels. Briefly, real-time fluorescence measurements were taken at each PCR cycle and the threshold cycle (Ct) value for each sample was calculated by determining the point at which fluorescence exceeded a threshold limit of 30 times the baseline standard deviation. The average baseline value and the baseline SD are calculated starting from the third cycle baseline value and stopping at the baseline value three cycles before the signal starts to exponentially rise. The PCR primers and/or probes for the specific IAPs were designed to span at least one exon-intron boundary separated by 1 kb or more of genomic DNA, to reduce the possibility of amplifying and detecting genomic DNA contamination. The specificity of the signal, and possible contamination from DNA, were verified by treating some RNA samples with either DNase or RNase, prior to performing the reverse transcription and PCR reaction steps.
A library of 15 HIAP1 antisense nucleobase oligomers as oligonucleotides was screened for protein knock-down by western blot analysis and for RNA knock-down by TaqMan, using the primers and probes described in Example 3, above, under two different conditions. HIAP1 RNA levels may be detected using standard Northern blot analyses or RT-PCR techniques. The antisense oligonucleotides were administered to cells under basal conditions or under cycloheximide-induction conditions (24 hour treatment with sub-toxic doses). Cycloheximide (CHX) can lead to a 10- to 200-fold induction of HIAP1 mRNA depending on the cell line treated. […] This effect of CHX is via two distinct mechanisms of action. First, CHX activates NFkB, a known transcriptional inducer of HIAP1, by blocking the de novo synthesis of a labile protein, IkB, which is an inhibitor of NFkB. This effect is mimicked by puromycin, another protein synthesis inhibitor, and by TNF-alpha, which induces a signaling cascade leading to the phosphorylation, ubiquination, and degradation of IkB.
SF295 glioblastoma cells were transfected with lipofectin and oligonucleotide (scrambled survivin, no oligonucleotide, antisense APO 1 to APO 15) or left untreated. […]

Data set [5] relates to SF295 cells. The experiment in a line: Cytotoxicity of HIAP1 oligonucleotides measured by total protein. Conditions: FIG. 23. The text has this:
FIG. 23 is a graph showing the effects of HIAP1 oligonucleotides on cytotoxicity, as measured by total protein.

As to “CGGAGGCTGAGGCAGGAGA (CGGAGGCNGAGGCAGGAGA; chemistry not given here) [APO 2]”, the “activity in the HIAP1 protein and mRNA assays” value in data set [1] was “high activity, or had significant activity in both the protein and mRNA assays”. In data set [2], the “loss of survivin protein (specificity)” value was “did not see any loss of survivin protein”. In addition, the “effect on HIAP1 mRNA (and protein) under CHX induction (in words)” value in data set [3] is “greatest block of CHX-induced upregulation of HIAP1 mRNA and protein”. Also, the “decrease in HIAP1 mRNA compared to scrambled survivin control” value in data set [3] (cycloheximide induction conditions, 6 hours after transfection) came out at 50%. In data set [4], the “HIAP1 mRNA levels (in words)” value is on record as “did not cause a stress-induced increase in HIAP1 mRNA”. In addition, the “decrease of HIAP1 mRNA compared to mock or scrambled survivin control” value in data set [4] (SF295 cells, six hours after transfection) is approximately 50%.
As for “TCTCACAGACGTTGGGCTT (chemistry not given here) [APO 6]”, the “HIAP1 mRNA levels (in words)” value in data set [4] is given as “stress-induced increase in HIAP1 mRNA”. For the same sequence, in data set [5], the “toxicity seen as general decrease in total protein” value is reported as “evidence of toxicity”.
